Test results from patent US20230381163A1, “DABIGATRAN COMPOSITIONS AND METHODS OF TREATING AGE-RELATED MACULAR DEGENERATION” (The United States Government As Represented By The …, priority 2022, published 2023).

Legend:
thrombin [1] = target: thrombin (Homo sapiens, UniProt P00734); experiment: Thrombin activity in cell-free system; conditions: 10 μM, thrombin 10-500 U/mL
Procedure: Thrombin activity in cell-free system. To measure the level of active thrombin in cell-free system, known concentrations of thrombin were prepared in 100 μl of assay buffer (50 mM Tris, 100 mM NaCl, and 0.01% BSA; pH 7.5), subsequently 50 μl of thrombin substrate was added and incubated at 37° C. Fluorescence was measured at 405 nm using the Biotek Synergy HT Microplate Reader and thrombin activity was determined by extrapolation from a thrombin standard curve. Effects of inhibitors were tested by pre-incubating the inhibitors with thrombin, before substrate incorporation.

VEGF = VEGF levels in RPE/choroid of CNV mice (western blot); format: in vivo, mouse
From the text: Pathway analysis in CNV. Based on the results in cells, an analysis in animals followed, focusing on VEGF levels in the RPE/choroid, complemented by CTGF analysis and complement activation (C3d production and binding). RPE/choroid samples were collected at the end of the angiogenesis experiment (day 6) and after the final OCT analysis in the repair experiment (day 23) and compared to naive controls (no CNV and no dabigatran treatment).

complement component C3 = experiment: Thrombin-mediated C3 cleavage in apical supernatants of ARPE-19 cells (western blot); format: cell-based, human; conditions: 10 μM
Procedure: Second, it was tested whether thrombin can cleave complement components (Huber-Lang, M., et al. (2006). Nat Med 12, 682-687; and Krisinger, M. J., et al. (2012). Blood 120, 1717-1725), specifically C3 and C5, producing cleavage products potentially different from those produced by classical convertases. To test the effects of thrombin on complement cleavage, the apical supernatants of treated ARPE-19 cell monolayers were analyzed by western blotting. Cleavage of C3α was evaluated using an antibody specific for C3a (FIG. 5A, left-hand blot). The C3a antibody detected C3, the C3α band as well as other fragments containing C3a. Thrombin caused a concentration dependent cleavage of complement component C3 (˜190 kDa), caused reduction of the 120 kDa C3a band and generation of a new 80 kDa fragment. Fragments at 32 kDa and 9-10 kDa with higher doses of thrombin treatment (FIG. 5A, 10 U/mL) were also observed. The 9-10 kDa band ran at the same molecular weight as purified C3a (FIG. 11). The reduction of the 120 kDa fragment was correlated with the generation of the 80 kDa fragment (FIG. 5B). The loss of the 120 kDa fragment was prevented by either dabigatran (10 μM) or the C3 inhibitor compstatin (100 μM), which inhibits complement both on cell membranes as well as in fluid phase, but not by TT30 (10 μM), which is an inhibitor that prevents membrane-bound AP activation (FIG. 5C). […]

thrombin [2] = target: thrombin (Mus musculus, UniProt P19221)
Procedure: Thrombin activity assay. Thrombin activity was measured according to a methodology described by Ludwicka with modifications (Ohba, T., et al. (1994). Am J Respir Cell Mol Biol 10, 405-412). Thrombin specific peptide Boc-Val-Pro-Arg-7-amido-4-methylcoumarin hydrochloride (Sigma-Aldrich) was reconstituted in molecular grade ice-cold H2O at a concentration of 0.5 mg/ml and used as substrate.
It was test whether dabigatran would alter the course of angiogenesis or repair, by feeding animals with dabigatran chow during the two different phases.

[3] = tested on: C3d and C5b-9 deposition on ARPE-19 cells; experiment: C3d and MAC (C5b-9) deposition on ARPE-19 cell surfaces (immunofluorescence); conditions: 10 μM, compared with thrombin-treated cells (20 U/mL)
Procedure: ARPE-19 cells were grown on transwell membranes in 6 well plates (Thurman, J. M., et al. (2009). J Biol Chem 284, 16939-16947), treated with thrombin and inhibitors, and fixed in 4% paraformaldehyde for 15 min at room temperature. Primary antibodies against C5b-9 (1:200, Abcam) and C3d (1:100) (Thurman, J. M., et al. (2013). J Clin Invest 123, 2218-2230) were diluted in blocking buffer (10% normal goat serum, 3% BSA, 0.4% Triton X-100 in PBS) and cells were incubated for overnight at 4° C., followed by washes and incubation with goat anti-rabbit Alexa Fluor® 568—conjugated IgG or donkey anti-goat Alexa Fluor® 488-conjugated secondary antibodies (1:500; Thermo Fisher Scientific), respectively. Nuclei were identified with DAPI (Sigma-Aldrich). Transwell membranes were covered with aqua-mount mounting media (Thermo Scientific), cover slipped and photographed (Olympus 1X73 Research Inverted Microscope equipped with cellSens imaging software).
First, it was tested whether thrombin results in deposition of C3d and the assembly of MAC on ARPE-19 cell surfaces. ARPE-19 cell monolayers were treated apically with thrombin and deposition of MAC (C5b-9; red) and C3d (green) were examined by immunofluorescence staining (FIG. 4A).

[4] = tested on: VEGF secretion in ARPE-19 cells; experiment: VEGF secretion into apical supernatant of ARPE-19 monolayers (ELISA); format: cell-based, human; conditions: dabigatran, thrombin-treated cells
Procedure: Cell culture experiments: Cells. […] Frontiers in Aging Neuroscience 9).
VEGF ELISA. VEGF in the supernatant was measured using the Quantikine® Human VEGF Immunoassay (R & D System) according to the manufacturer's protocol. In brief, 200 μl of standard/sample was mixed with 50 μl of assay diluent and added to the plate precoated with the capture antibody. After washing, 200 μl of the VEGF detection antibody (polyclonal antibody specific for human VEGF conjugated to horseradish peroxidase) was added, followed by freshly prepared substrate reagents (stabilized hydrogen peroxide and tetramethylbenzidine). The reaction was terminated using 50 μl of stop solution and absorbance was measured at λ1 450 nm with wavelength correction λ2 at 540 nm. VEGF concentration of samples were calculated comparing the absorbance with the standards and converted into fold change considering the serum-free condition as 1 in the scale.

[5] = dabigatran chow, ˜10 mg/kg bodyweight per day; cited from earlier work

CCCCCCOC(=O)NC(=N)c1ccc(NCc2nc3cc(C(=O)N(CCC(=O)OCC)c4ccccn4)ccc3n2C)cc1
effect on thrombin enzyme activity (thrombin [1]): significantly reduce
effect on VEGF levels in RPE/choroid (VEGF; 6-day time point, angiogenesis phase, P=0.9): no effect
effect on VEGF levels in RPE/choroid (VEGF; 23-day time point, repair phase, P=0.001): significantly reduced
effect on thrombin-mediated loss of the 120 kDa C3 fragment (complement component C3): prevented
reduction of thrombin activity in retina/RPE/choroid tissues (thrombin [2]; mice on dabigatran chow vs control mice, P=0.04): ~10%
reduction of thrombin activity in serum (thrombin [2]; mice on dabigatran chow ˜10 mg/kg per day vs control mice, P=0.003): ~35%
thrombin activity in retina/RPE/choroid tissues (thrombin [2]; mice on dabigatran chow, control: 100±3.1): 91.1±2.6
thrombin activity in serum (thrombin [2]; mice on dabigatran chow, control: 100±7.6): 65.4±5.1
reduction of C5b-9 deposition [3]: ~50%
reduction of C3d deposition [3]: ~60%
reduction of thrombin-induced VEGF content [4]: ~35%
blood plasma concentration of dabigatran [5]: 372 ± 30 ng/mL
elongation of coagulation times [5]: 3 fold
